In one series the test system is CCR2. Kind of series: Uptake in wild-type macrophages pre-treated with CCR2 inhibitor. The format is cell-based, mouse. The following applies: BMS CCR2 22 10 nM, 6 h pre-treatment vs DMSO. On the procedure: Supplementary Figure S6. A) Separate channels for main manuscript Figure 1B.
Uptake of carboxyfluorescein-labeled CCTV or VTCC in cultured bone marrow derived macrophages from B)
CCR2 knockout (KO, B6.129S4-Ccr2 /J) or wild-type (WT) mice; C) wild-type mouse-derived macrophages
pre-treated (6 h) with CCR2 inhibitor BMS CCR2 22 (10 nM) or DMSO as vehicle control. C)
(1 picture or pasted object on this page, not shown here)

Series [1] concerns cytokines in cell culture supernatants. Briefly: Cytokine analysis, Luminex panel. The format is cell-based, mouse. On the procedure:
Cytokines were analyzed by EVE Technologies (https://www.evetechnologies.com) using the Luminex 31-Plex kit. Cell culture supernatants were diluted twice with PBS and provided in biological triplicates to EVE Technologies via overnight shipment in dry ice. Individual IL-1β and TNFɑ assays were performed using Perkin Elmer AlphaLISA kits, as per Supplementary Table S1 and vendor instructions.

The subject of series [2] is bone marrow derived macrophages (BMDMs). Briefly: Immunoblot of IL-1β and HO-1 in LPS-stimulated BMDMs. The format is cell-based, mouse. The procedure: Immunoblotting was performed as previously described with the following modifications. Briefly, cell lysates were obtained in SDS lysis buffer consisting of 2% SDS, 50 mM Tris-HCl (pH 6.8), 100 mM DTT, 5% Ficoll 400, 0.0001% bromophenol blue and a cocktail of protease inhibitors. Lysates were sonicated on ice before heating at 97 °C for 7 min to completely denature the protein. Protein concentration was determined using IR spectroscopy (which is insensitive to high SDS and DTT concentrations) with a Millipore DirectDetect spectrometer. Lysates were equally loaded at 10-15 µg per lane on BioRad TGX Criterion gels (4-15%) and resolved at 300 V in Tris-Glycine running buffer. Proteins were transferred on nitrocellulose membranes using the BioRad TransBlot turbo according to the manufacturer's instructions. Membranes were blocked in fish serum (Aqua Block) or 5% nonfat dry milk in TBS-T (0.05% Tween 20) and probed overnight at 4 °C with primary antibodies as indicated in Supplementary Table S1. The membranes were washed in TBS-T and incubated with secondary antibodies for 1 h at room temperature. After washing, semi-quantitative visualization of the proteins of interest was enabled using an enhanced chemiluminescence reagent as previously described and the Azure C400 western blot imaging system.
N-acetylcysteine (NAC) served as an antioxidant control. β-Actin was used as a loading control. B) Gene expression analysis in RAW cells treated with 1 µM of vehicle, CCTV and VTCC (peptide nanoparticle control) for 24 h. mRNA expression of mannose receptor (Mrc1), nitric oxide synthase 2 (Nos2), tumor necrosis factor (Tnf), interleukin-1beta (Il1b), and interleukin-6 (Il6) were analyzed. C) Cytokines in cell culture supernatants were analyzed as indicated. […] Metrics of chemotactic behaviour i.e. velocity, distance travelled, and chemotactic index were quantified as presented in bar graphs. […] P values are calculated by t-test and error bars are standard errors of three independent experiments.

For series [3], the system named is bone marrow derived monocytes, CCL2-induced migration. Kind of series: CCL2-induced chemotaxis assay. The format is cell-based, mouse. Set-up: cell velocity / distance traveled / chemotactic index: dose or concentration left out as unconfirmed. The procedure:
Chemotaxis assays were performed using IBIDI µ-Slides as per the manufacturer's instructions and the recently published guide detailing the protocol. […] Cells were allowed to attach for 3 h at 37 °C, washed with 0.2 mL warm cell culture medium using a pipette tip inserted into µ-channel port, following which 100 nM recombinant mouse CCL2 protein was added as a chemoattractant (or omitted in control slides) to the one of side reservoirs. Cell movement was recorded for a duration of 12 h via phase video-microscopy in a stage-top humidified incubator at 37 °C and 5% CO2 atmosphere. Analysis was performed using the ImageJ IBIDI tracking tool, available free of charge at https://ibidi.com.

The test system of series [4] is CCR2hiLy6Chi inflammatory cells in blood of ApoE-/- mice. Briefly: Flow cytometry of blood immune cells after injection. The format is in vivo, mouse. The procedure: Twenty-four hours after nanoparticle injection (see above), mice were euthanized and whole blood was collected via cardiac puncture. The cells were separated from plasma via centrifugation at 2500 rpm for 25 min at 4 °C and white blood cells were isolated after lysis of red blood cells with ACK lysis buffer. The cells were resuspended in 1% FBS in PBS (FACS buffer) on ice and stained with fluorophore-conjugated antibodies detecting CD11b, CD11c, CCR2, and Ly6C (Supplementary Table S1) for 30 min at room temperature. Cells were washed with FACS buffer three times and one time with PBS, and then fixed in 2% paraformaldehyde in PBS, pH 7.4. Samples were run on a Becton Dickinson LSR II flow cytometer and cell surface expression analysis of indicated markers was performed using FlowJo software.

Series [5] concerns nanoparticle-targeted cells in atherosclerotic plaque. Kind of series: mRNA analysis of laser-captured nanoparticle-positive plaque areas. The format is in vivo, mouse. The following applies: single dose, 24 h, CCTV vs VTCC, 3-4 animals. The procedure:
Twenty-four hours after nanoparticle injection (see above), mice were euthanized and abdominal aortas were isolated and embedded in Optimal Cutting Temperature compound. After cryotome-sectioning, resulting in 20-30 slides per mouse, 15 slides were sent to Ohio State laser capture microdissection core lab for capture and analysis. The rest of the slides were processed as follows: after fixation in methanol:acetone 50:50 at -20 °C, slides were hydrated in PBS, blocked for 30 min in fish serum (Aqua Block) and stained for 1 h with primary antibodies against F4/80 followed washing and staining with HRP-conjugated secondary antibody for 30 min. DAB peroxidase kit was then used as per manufacturer's instructions followed by mounting. DAB and antibody staining (but not wash steps) was omitted in slides designated for nanoparticle fluorescence visualization. Nanoparticles fluorescence was visualized with Zeiss 510 LSM-meta confocal microscope and 20x objective. DAB F4/80 staining was visualized with Nikon FN1 microscope and same power objective.

Regarding CCTV, in the series on CCR2, the “uptake in macrophages pre-treated with BMS CCR2 22” value is on record as “drastically reduced”. In addition, in series [1] (Luminex inflammation array), the “levels of 14 cytokines in supernatants” value is given as “did not detect significant differences among 14 different cytokines”. For the same substance, in series [1] (not statistically significant), the IL-6 cytokine result is recorded as “trend in CCTV-induced downregulation” and the IL-12p40 cytokine entry is listed as “though to a lesser extent”. The “HO-1 levels at high concentration” value in series [2] (50 µM) was “the effect was reversed”. Further, in series [2] (LPS 100 ng/mL, 16 h), the “HO-1 levels (immunoblot)” value is “reduced” and the “IL-1β production (immunoblot)” value is “dose-dependent reduction of IL-1β”. Further, in series [3] (CCL2-induced chemotaxis), the cell velocity result was “statistically significant inhibition”, the chemotactic index entry was “statistically significant inhibition” and the distance traveled result is listed as “statistically significant inhibition”. The CCL2-induced monocyte migration result in series [3] (pre-treated BMDMs, 100 nM recombinant mouse CCL2, 12 h, nanoparticles) was “potently inhibited CCL2-induced monocyte migration in an antagonistic manner”. The “accumulation in CCR2-positive blood macrophage subpopulations” value in series [4] (100 mg/kg, 24 h, three ApoE-/- mice/group) is “selectively accumulated in macrophage subpopulations positive for CCR2”. In addition, the “nanoparticle-positive CCR2hiLy6Chi cells” value in series [4] (100 mg/kg, 24 h, three ApoE-/- mice/group, vs VTCC) is given as “an increased number of these cells were CCTV positive compared to VTCC”. Also, the “number of macrophages that engulfed nanoparticles” value in series [4] (Supplementary Figure S9, CCTV vs VTCC) is on record as “not due to a different number of macrophages that engulfed nanoparticles”. For the same substance, in series [5], the “Arg1 mRNA in nanoparticle-targeted plaque cells” value is “slightly upregulated in CCTV-targeted cells, however this was not significant”; the “Ccl2 mRNA in nanoparticle-targeted plaque cells” value is listed as “downregulated”; the “Il6 mRNA in nanoparticle-targeted plaque cells” value was “downregulated”.
